Results on 22 compounds are retold here after ChEMBL document CHEMBL1136582, “Identification of a high-affinity phosphopeptide inhibitor of Stat3” (Bioorg Med Chem Lett, 2003).

Each structure is given as a SMILES string. Square brackets hold non-standard residues; d marks the D form. Peptide text beside a SMILES is read from it. * marks the point of attachment. ξ: configuration not given here. Phe(4-tetrazol-5-yl) = N[C@@H](Cc1ccc(-c2nnn[nH]2)cc1)C(=O)O; Phe(4-COOH) = N[C@@H](Cc1ccc(C(=O)O)cc1)C(=O)O; pY = N[C@@H](Cc1ccc(OP(=O)(O)O)cc1)C(=O)O; X1 = NC(=O)[C@H](CO)NC[C@H](CC(=O)O)N*; ξA = CC(N)C(=O)O

Broadly, the IC50 is the point on the concentration scale where inhibition reaches its midpoint.

In the experiment the target is Signal transducer and activator of transcription 3 (Homo sapiens, UniProt P40763). As to the kind of experiment: Inhibition of Stat3 (Signal transduction and activator of transcription 3) dimerization measured by EMSAs (Electrophoretic mobility shift assay).
Chain of Signal transducer and activator of transcription 3 (P40763 whole entry): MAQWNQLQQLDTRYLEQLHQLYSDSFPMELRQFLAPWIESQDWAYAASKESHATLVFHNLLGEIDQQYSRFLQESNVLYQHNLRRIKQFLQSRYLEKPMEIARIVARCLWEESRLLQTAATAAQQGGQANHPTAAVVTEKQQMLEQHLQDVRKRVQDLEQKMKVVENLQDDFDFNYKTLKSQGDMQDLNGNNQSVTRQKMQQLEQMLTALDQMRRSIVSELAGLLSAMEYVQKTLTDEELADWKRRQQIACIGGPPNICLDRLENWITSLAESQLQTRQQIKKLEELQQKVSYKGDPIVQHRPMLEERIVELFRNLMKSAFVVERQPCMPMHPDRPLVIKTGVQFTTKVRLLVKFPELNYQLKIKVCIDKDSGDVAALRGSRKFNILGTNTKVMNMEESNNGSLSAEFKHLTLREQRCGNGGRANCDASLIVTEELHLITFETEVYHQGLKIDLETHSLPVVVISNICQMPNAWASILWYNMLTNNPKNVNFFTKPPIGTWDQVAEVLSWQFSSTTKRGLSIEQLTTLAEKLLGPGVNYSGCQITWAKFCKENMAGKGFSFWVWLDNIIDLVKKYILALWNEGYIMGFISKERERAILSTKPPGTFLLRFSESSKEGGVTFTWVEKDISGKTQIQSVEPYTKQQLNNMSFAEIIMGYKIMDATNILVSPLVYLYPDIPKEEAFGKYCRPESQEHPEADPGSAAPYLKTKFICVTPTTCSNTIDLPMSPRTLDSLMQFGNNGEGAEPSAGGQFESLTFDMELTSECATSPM
For `CC(=O)N[C@@H](Cc1ccc(C(=O)O)cc1)C(=O)N[C@@H](CC(C)C)C(=O)N1CCC[C@H]1C(=O)N[C@@H](CCC(N)=O)C(=O)N[C@H](C(=O)N[C@H](C(N)=O)C(C)C)[C@@H](C)O` (Ac-[Phe(4-COOH)]LPQTV-NH2), the IC50 was over 6 µM.
The result for `CC(=O)N[C@@H](Cc1ccc(-c2nn[nH]n2)cc1)C(=O)N[C@@H](CC(C)C)C(=O)N1CCC[C@H]1C(=O)N[C@@H](CCC(N)=O)C(=O)N[C@H](C(=O)N[C@H](C(N)=O)C(C)C)[C@@H](C)O` (Ac-[Phe(4-tetrazol-5-yl)]LPQTV-NH2) reads over 6 µM; that for `CC(=O)N[C@@H](Cc1ccc(OP(=O)(O)O)cc1)C(=O)N[C@@H](CC(C)C)C(=O)N1CCC[C@H]1C(N)=O` (Ac-[pY]-Leu-Pro-NH2), over 6 µM.
Then `CC(=O)N[C@@H](Cc1ccc(OP(=O)(O)O)cc1)C(=O)N[C@@H](C)C(=O)N1CCC[C@H]1C(=O)N[C@@H](CCC(N)=O)C(=O)N[C@H](C(=O)N[C@H](C(N)=O)C(C)C)[C@@H](C)O` (Ac-[pY]APQTV-NH2), with 1.6 µM; and `CC(=O)N[C@@H](Cc1ccc(OP(=O)(O)O)cc1)C(=O)N[C@@H](Cc1ccccc1)C(=O)N[C@@H](CCCCN)C(=O)N[C@@H](CCC(N)=O)C(=O)N[C@@H](CC(N)=O)C(=O)N[C@@H](CS)C(N)=O` (Ac-[pY]FKQNC-NH2), with 60 µM.
Regarding `CSCC[C@H](NC(=O)[C@H](CCC(N)=O)NC(=O)[C@@H]1CCCN1C(=O)[C@H](CCCCN)NC(=O)[C@H](Cc1ccc(OP(=O)(O)O)cc1)NC(C)=O)C(=O)N[C@@H](Cc1cnc[nH]1)C(N)=O` (Ac-[pY]KPQMH-NH2), the IC50 turned out to be 0.4 µM.
Then `CC(=O)N[C@@H](Cc1ccc(OP(=O)(O)O)cc1)C(=O)N[C@@H](CC(C)C)C(=O)N[C@@H](CCCCN)C(=O)N[C@@H](CCC(N)=O)C(=O)N[C@@H](CCC(=O)O)C(=O)N[C@@H](CO)C(N)=O` (Ac-[pY]LKQES-NH2), with 6 µM; and `CC(=O)N[C@@H](Cc1ccc(OP(=O)(O)O)cc1)C(=O)N[C@@H](CC(C)C)C(=O)N1CCC[C@H]1C(=O)N[C@@H](C)C(=O)N[C@H](C(=O)N[C@H](C(N)=O)C(C)C)[C@@H](C)O` (Ac-[pY]LPATV-NH2), with over 6 µM; and `CC(=O)N[C@@H](Cc1ccc(OP(=O)(O)O)cc1)C(=O)N[C@@H](CC(C)C)C(=O)N1CCC[C@H]1C(=O)N[C@@H](CCC(=O)O)C(=O)N[C@H](C(=O)N[C@H](C(N)=O)C(C)C)[C@@H](C)O` (Ac-[pY]LPETV-NH2), with over 6 µM.
With `CC(=O)N[C@@H](Cc1ccc(OP(=O)(O)O)cc1)C(=O)N[C@@H](CC(C)C)C(=O)N1CCC[C@H]1C(=O)N[C@@H](CC(N)=O)C(=O)N[C@H](C(=O)N[C@H](C(N)=O)C(C)C)[C@@H](C)O` (Ac-[pY]LPNTV-NH2), the IC50 turned out to be 2 µM.
The result for `CC(=O)N[C@@H](Cc1ccc(OP(=O)(O)O)cc1)C(=O)N[C@@H](CC(C)C)C(=O)N1CCC[C@H]1C(=O)N[C@@H](CCC(N)=O)C(=O)N[C@@H](C)C(=O)N[C@H](C(N)=O)C(C)C` (Ac-[pY]LPQAV-NH2) reads 0.8 µM; that for `CC(=O)N[C@@H](Cc1ccc(OP(=O)(O)O)cc1)C(=O)N[C@@H](CC(C)C)C(=O)N1CCC[C@H]1C(=O)N[C@@H](CCC(N)=O)C(=O)N[C@H](C(=O)N[C@@H](C)C(=O)O)[C@@H](C)O` (Ac-[pY]LPQTA-OH), 0.4 µM.
With `CC(=O)N[C@@H](Cc1ccc(OP(=O)(O)O)cc1)C(=O)N[C@@H](CC(C)C)C(=O)N[C@@H](CCCN=C(N)N)C(=O)N[C@@H](CS)C(=O)N[C@H](CN[C@@H](CO)C(N)=O)CC(=O)O` (Ac-[pY]LRC-X1), the IC50 turned out to be 80 µM.
Then `CC(=O)N[C@@H](Cc1ccc(OP(=O)(O)O)cc1)C(=O)N[C@@H](CC(C)C)C(=O)NC(C)C(=O)N[C@@H](CCC(N)=O)C(=O)N[C@H](C(=O)N[C@H](C(N)=O)C(C)C)[C@@H](C)O` (some centres not stated) (Ac-[pY]L[ξA]QTV-NH2), with 4 µM; and `CSCC[C@H](NC(=O)[C@H](Cc1ccc(OP(=O)(O)O)cc1)NC(C)=O)C(=O)N1CCC[C@H]1C(=O)N[C@@H](CCC(N)=O)C(N)=O` (Ac-[pY]MPQ-NH2), with 1.5 µM.
As for `CC(=O)N[C@@H](Cc1ccc(OP(=O)(O)O)cc1)C(=O)N[C@@H](CCC(N)=O)C(=O)N[C@@H](CCCCN)C(=O)N[C@@H](CCC(N)=O)C(=O)N[C@H](C(=O)N[C@@H](CCCN=C(N)N)C(N)=O)[C@@H](C)O` (Ac-[pY]QKQTR-NH2), the IC50 turned out to be 8 µM.
`CC(=O)N[C@@H](Cc1ccc(OP(=O)(O)O)cc1)C(=O)N[C@@H](CCC(N)=O)C(=O)N1CCC[C@H]1C(=O)N[C@@H](CCC(N)=O)C(=O)N[C@@H](C)C(=O)N[C@@H](CCCCN)C(N)=O` (Ac-[pY]QPQAK-NH2): the IC50 was determined as 6 µM.
Consider `CC(=O)N[C@@H](Cc1ccc(OP(=O)(O)O)cc1)C(=O)N[C@@H](CCCN=C(N)N)C(=O)N[C@@H](Cc1cnc[nH]1)C(=O)N[C@@H](CCC(N)=O)C(=O)N[C@H](C(=O)N1CCC[C@H]1C(N)=O)C(C)C` (Ac-[pY]RHQVP-NH2), for which the half-inhibitory concentration (IC50) is 6 µM.
Then `CSCC[C@H](NC(=O)[C@H](C)NC(=O)[C@H](CCC(N)=O)NC(=O)[C@@H]1CCCN1C(=O)[C@H](CCCN=C(N)N)NC(=O)[C@H](Cc1ccc(OP(=O)(O)O)cc1)NC(C)=O)C(N)=O` (Ac-[pY]RPQAM-NH2), with 1 µM; and `CC(=O)N[C@@H](Cc1ccc(OP(=O)(O)O)cc1)C(=O)N[C@@H](CO)C(=O)N[C@@H](CC(=O)O)C(=O)NCC(=O)N[C@@H](CC(N)=O)C(=O)N[C@@H](Cc1ccccc1)C(N)=O` (Ac-[pY]SDGNF-NH2), with over 150 µM.
The result for `CC(=O)N[C@@H](Cc1ccc(OP(=O)(O)O)cc1)C(=O)N[C@@H](CO)C(=O)N[C@H](C(=O)N[C@H](C(=O)N[C@H](C(=O)N[C@@H](Cc1c[nH]cn1)C(N)=O)C(C)C)C(C)C)[C@@H](C)O` (Ac-[pY]STVVH-NH2) reads over 150 µM.
Consider `CC(=O)N[C@@H](Cc1ccc(OP(=O)(O)O)cc1)C(=O)N[C@H](C(=O)N[C@@H](CC(C)C)C(=O)N[C@@H](CCC(N)=O)C(=O)NCC(=O)N[C@@H](CC(=O)O)C(N)=O)C(C)C` (Ac-[pY]VLQGD-NH2), for which the IC50 came out at 8 µM.
